These results are taken from ChEMBL document CHEMBL4041474, “Design, synthesis and pharmacological evaluation of 4,5-diarylisoxazols bearing amino acid residues within the 3-amido motif as potent heat shock protein 90 (Hsp90) inhibitors” (Eur J Med Chem, 2017).

The target of experiment [1] is Heat shock protein HSP 90-alpha (Homo sapiens, UniProt P07900). The experiment in a line: Inhibition of fluorescein isothiocyanate labeled geldanamycin binding to recombinant Hsp90alpha (unknown origin) after 1 hr by fluorescence polarization assay. (In general: In fluorescence polarisation assays a small probe gives low polarisation when free and higher when bound to something large.)

In experiment [2] the test system is NCI-H3122. The experiment is described as follows: Antiproliferative activity against human NCI-H3122 cells after 72 hrs by SRB assay. The class given is functional, cell-based. Conditions: NCI-H3122, 72 h.
The subject of experiment [3] is NCI-H3122. The experiment in a line: Potency index, ratio of AUY922 IC50 to compound IC50 for human NCI-H3122 cells. Format: functional.
The target of experiment [4] is T1, Heat shock protein HSP90 (Homo sapiens) (UniProt P07900+P08238). Particulars: 11.1 to 100 nM.
Description: Inhibition of Hsp90 in human NCI-H3122 cells assessed as decrease in phosphorylation of AKT at Ser473 at 11.1 to 100 nM after 24 hrs by Western blot analysis
For experiment [5], the system named is HCT-116. The experiment in a line: Antiproliferative activity against human HCT116 cells after 72 hrs by SRB assay. Format: functional, cell-based. Particulars: HCT-116, 72 h. A general note: The SRB assay estimates cell density from bound dye.
Experiment [6] has as its system U-87 MG. The experiment is described as follows: Antiproliferative activity against human U87MG cells after 72 hrs by SRB assay. Format: functional, cell-based, U-87MG ATCC.
The target in experiment [7] is T1, Heat shock protein HSP90 (Homo sapiens). Conditions: 11.1 to 100 nM. This is another data set of the same source.
Description: Inhibition of Hsp90 in human NCI-H3122 cells assessed as upregulation of Hsp70 at 11.1 to 100 nM after 24 hrs by Western blot analysis
Experiment [8] shares this target. Conditions: 11.1 to 100 nM. This is another data set of the same source.
Description: Inhibition of Hsp90 in human NCI-H3122 cells assessed as decrease in phosphorylation of ERK1/2 at 11.1 to 100 nM after 24 hrs by Western blot analysis
The test system of experiment [9] is DU-145. The experiment is described as follows: Antiproliferative activity against human DU145 cells after 72 hrs by SRB assay. The class given is functional, cell-based. Particulars: DU-145, 72 h.
The subject of experiment [10] is NCI-H460. The experiment is described as follows: Antiproliferative activity against human NCI-H460 cells after 72 hrs by SRB assay. Format: functional, cell-based. Particulars: NCI-H460, 72 h.
The target in experiment [11] is T1, Heat shock protein HSP90 (Homo sapiens). Conditions: 100 nM.
Description: Inhibition of Hsp90 in human NCI-H3122 cells assessed as degradation of EML4-ALK fusion protein at 100 nM after 24 hrs by Western blot analysis
In experiment [12] the test system is A549. The experiment in a line: Antiproliferative activity against human A549 cells after 72 hrs by SRB assay. Particulars: A549, 72 h. The class given is functional, cell-based.
For experiment [13], the system named is MDA-MB-231. The experiment in a line: Antiproliferative activity against human MDA-MB-231 cells after 72 hrs by SRB assay. The class given is functional, cell-based. Particulars: MDA-MB-231, 72 h.
Experiment [14] concerns BT-474. The experiment in a line: Antiproliferative activity against human BT474 cells after 72 hrs by SRB assay. Conditions: BT-474, 72 h. The class given is functional, cell-based.
In experiment [15] the test system is NCI-N87. The experiment is described as follows: Antiproliferative activity against human NCI-N87 cells after 72 hrs by SRB assay. Format: functional, cell-based. Particulars: NCI-N87, 72 h.

Active and inactive are the calls of the source. The calls are words filed in the database; no cut-off is given here.

For the molecule `COC(=O)[C@@H](CC(C)C)NC(=O)[C@H](NC(=O)c1noc(-c2cc(C(C)C)c(O)cc2O)c1-c1ccc(CN2CCOCC2)cc1)C(C)C`, the IC50 in [1] is 285 nM; in [2] it was greater than 10000 nM.
Turning to `COC(=O)[C@@H](Cc1ccccc1)NC(=O)COCCOCCNC(=O)c1noc(-c2cc(C(C)C)c(O)cc2O)c1-c1ccc(CN2CCOCC2)cc1`, the values for the 50% inhibitory concentration (IC50) in experiment [1] and in experiment [2] were greater than 1000 nM and 1530 nM, respectively.
With `COC(=O)[C@H](NC(=O)CCCCCNC(=O)c1noc(-c2cc(C(C)C)c(O)cc2O)c1-c1ccc(CN2CCOCC2)cc1)C(C)C`, the half-maximal inhibitory concentration (IC50) amounted to 98 nM in [1] and 65 nM in experiment [2].
The matching figures for `COC(=O)[C@H](NC(=O)[C@H](NC(=O)[C@H](NC(=O)[C@H](NC(=O)c1noc(-c2cc(C(C)C)c(O)cc2O)c1-c1ccc(CN2CCOCC2)cc1)C(C)C)C(C)C)C(C)C)C(C)C`: 528 nM and 638 nM.
The matching figures for `CC(C)c1cc(-c2onc(C(=O)N[C@@H](C(=O)NC3(CO)CC3)C(C)C)c2-c2ccc(CN3CCOCC3)cc2)c(O)cc1O`: 106 nM and 81 nM.
As for `CC(C)c1cc(-c2onc(C(=O)N[C@@H](C(=O)OC(C)(C)C)C(C)C)c2-c2ccc(CN3CCOCC3)cc2)c(O)cc1O`, the 50% inhibitory concentration (IC50) in [1] was 112 nM; in experiment [2], less than 1 nM.
For `CCOC(=O)[C@H](NC(=O)c1noc(-c2cc(C(C)C)c(O)cc2O)c1-c1ccc(CN2CCOCC2)cc1)C(C)C`, in experiment [3], the “Ratio IC50” value stood at 10. In addition, the IC50 in [1] amounted to 189 nM; in [2], 2 nM.
In turn, `CCNC(=O)c1noc(-c2cc(C(C)C)c(O)cc2O)c1-c1ccc(CN2CCOCC2)cc1` [LUMINESPIB] had an IC50 in experiment [2] of 14 nM.
For the molecule `COC(=O)[C@@H](Cc1ccccc1)NC(=O)c1cnc(N2CCN(C(=O)c3noc(-c4cc(C(C)C)c(O)cc4O)c3-c3ccc(CN4CCOCC4)cc3)CC2)nc1`, the IC50 in experiment [1] was greater than 1000 nM; in experiment [2], 164 nM.
The like results for `COC(=O)[C@@H](Cc1ccccc1)NC(=O)COCCOCCOCCNC(=O)c1noc(-c2cc(C(C)C)c(O)cc2O)c1-c1ccc(CN2CCOCC2)cc1` were, in that order, 122 nM and 40 nM.
The like results for `CNC(=O)[C@H](NC(=O)c1noc(-c2cc(C(C)C)c(O)cc2O)c1-c1ccc(CN2CCOCC2)cc1)C(C)C` were, in that order, 21 nM and 39 nM.
The like results for `COC(=O)[C@@H](Cc1ccccc1)NC(=O)c1cnc(N2CCC(CNC(=O)c3noc(-c4cc(C(C)C)c(O)cc4O)c3-c3ccc(CN4CCOCC4)cc3)CC2)nc1` were, in that order, 749 nM and 1130 nM.
Consider `COC(=O)[C@H](NC(=O)COCCOCCOCCNC(=O)c1noc(-c2cc(C(C)C)c(O)cc2O)c1-c1ccc(CN2CCOCC2)cc1)C(C)C`, for which the inhibition result in experiment [4], in experiment [7], in experiment [8] and in experiment [11] was “Active” throughout. Moreover, the IC50 in experiment [1] came out at 14 nM; in experiment [5], 116 nM; in experiment [6], 109 nM; in experiment [9] it was 239 nM; in [10], 247 nM; in [12], 351 nM. In addition, the IC50 in experiment [13] worked out at 130 nM; in experiment [14], 57 nM; in experiment [2], 42 nM; in experiment [15] it was 564 nM.
With `COC(=O)[C@@H](Cc1c[nH]c2ccccc12)NC(=O)c1noc(-c2cc(C(C)C)c(O)cc2O)c1-c1ccc(CN2CCOCC2)cc1`, the IC50 in [1] was 368 nM; in experiment [2] it was 149 nM.
The matching figures for `CC(C)c1cc(-c2onc(C(=O)N[C@@H](C(=O)N3CCN(C)CC3)C(C)C)c2-c2ccc(CN3CCOCC3)cc2)c(O)cc1O`: 429 nM and 149 nM.
For `COC(=O)[C@H](CCCCNC(=O)OCc1ccccc1)NC(=O)c1noc(-c2cc(C(C)C)c(O)cc2O)c1-c1ccc(CN2CCOCC2)cc1`, the IC50 was determined as 514 nM in experiment [1] and 4470 nM in experiment [2].
Take `CC(C)c1cc(-c2onc(C(=O)N[C@@H](C(=O)NCCN3CCOCC3)C(C)C)c2-c2ccc(CN3CCOCC3)cc2)c(O)cc1O`: the concentration for half-maximal inhibition (IC50) in [1] was found to be 206 nM; in [2], 139 nM.
The like results for `CC(C)c1cc(-c2onc(C(=O)N[C@@H](C(=O)N3CC(F)(F)C3)C(C)C)c2-c2ccc(CN3CCOCC3)cc2)c(O)cc1O` were, in that order, 39 nM and 37 nM.
The matching figures for `COC(=O)[C@@H](Cc1ccccc1)NC(=O)[C@H](NC(=O)c1noc(-c2cc(C(C)C)c(O)cc2O)c1-c1ccc(CN2CCOCC2)cc1)C(C)C`: 397 nM and 79 nM.
The matching figures for `COC(=O)[C@H](NC(=O)[C@H](NC(=O)c1noc(-c2cc(C(C)C)c(O)cc2O)c1-c1ccc(CN2CCOCC2)cc1)C(C)C)C(C)C`: 206 nM and greater than 10000 nM.
Turning to `CCNC(=O)[C@H](NC(=O)c1noc(-c2cc(C(C)C)c(O)cc2O)c1-c1ccc(CN2CCOCC2)cc1)C(C)C`, the IC50 turned out to be 28 nM in experiment [1] and 34 nM in experiment [2].
The like results for `COC(=O)[C@@H](Cc1ccccc1)NC(=O)CCCCCNC(=O)c1noc(-c2cc(C(C)C)c(O)cc2O)c1-c1ccc(CN2CCOCC2)cc1` were, in that order, 307 nM and 90 nM.
The matching figures for `COC(=O)[C@H](NC(=O)c1cnc(N2CCC(CNC(=O)c3noc(-c4cc(C(C)C)c(O)cc4O)c3-c3ccc(CN4CCOCC4)cc3)CC2)nc1)C(C)C`: 407 nM and 278 nM.
The like results for `COC(=O)[C@H](NC(=O)COCCOCCNC(=O)c1noc(-c2cc(C(C)C)c(O)cc2O)c1-c1ccc(CN2CCOCC2)cc1)C(C)C` were, in that order, 154 nM and 90 nM.
Consider `COC(=O)[C@H](NC(=O)c1cnc(N2CCN(C(=O)c3noc(-c4cc(C(C)C)c(O)cc4O)c3-c3ccc(CN4CCOCC4)cc3)CC2)nc1)C(C)C`, for which the IC50 in [1] came out at 473 nM; in experiment [2] it was 135 nM.
`COC(=O)[C@H](NC(=O)[C@H](NC(=O)C(NC(=O)c1noc(-c2cc(C(C)C)c(O)cc2O)c1-c1ccc(CN2CCOCC2)cc1)C(C)C)C(C)C)C(C)C` (single isomer, unassigned): the half-maximal inhibitory concentration (IC50) came to 259 nM in experiment [1] and 34 nM in [2].
The like results for `COC(=O)[C@@H](CC(C)C)NC(=O)c1noc(-c2cc(C(C)C)c(O)cc2O)c1-c1ccc(CN2CCOCC2)cc1` were, in that order, 151 nM and 19 nM.
The like results for `COC(=O)[C@@H](CO)NC(=O)c1noc(-c2cc(C(C)C)c(O)cc2O)c1-c1ccc(CN2CCOCC2)cc1` were, in that order, 72 nM and 227 nM.
The matching figures for `COC(=O)[C@@H](CC1CCCCC1)NC(=O)c1noc(-c2cc(C(C)C)c(O)cc2O)c1-c1ccc(CN2CCOCC2)cc1`: 836 nM and greater than 10000 nM.
Regarding `COC(=O)[C@H](NC(=O)c1noc(-c2cc(C(C)C)c(O)cc2O)c1-c1ccc(CN2CCOCC2)cc1)C(C)C`, the IC50 was 79 nM in [1] and 28 nM in experiment [2].
The like results for `COC(=O)[C@@H](Cc1ccccc1)NC(=O)c1noc(-c2cc(C(C)C)c(O)cc2O)c1-c1ccc(CN2CCOCC2)cc1` were, in that order, 260 nM and 77 nM.

The IC50 is the point on the concentration scale where inhibition reaches its midpoint.
